This is an account of results in ChEMBL document CHEMBL1138991, “(+)-12alpha-Hydroxysophocarpine, a new quinolizidine alkaloid and related anti-HBV alkaloids from Sophora flavescens” (2006).

Active and inactive are the calls of the source. The calls are words filed in the database; no cut-off is given here.

Test [1] concerns Hepatitis B virus. Briefly: Inhibition of HBeAg release against HBV in HepG2 2.2.15 cell line at 0.2 umol/mL. Format: functional. Further details: scale not given: the % may be the effect or the level left.
Test [2] deals with Hepatitis B virus. The test can be described thus: Inhibition of HBsAg release against HBV in HepG2 2.2.15 cell line at 0.2 umol/mL. The format is functional. Also noted: scale not given: the % may be the effect or the level left.
Test [3] concerns Hepatitis B virus. The test can be described thus: Inhibition of HBeAg release against HBV in HepG2 2.2.15 cell line at 0.4 umol/mL. The format is functional. Further details: scale not given: the % may be the effect or the level left.
For test [4], the system named is HepG2. The test can be described thus: Cytotoxicity against HepG2 2.2.15 cell line at 0.8 umol/mL by MTT assay. The note with it: Homo sapiens. Format: functional, cell-based. Background: Tetrazolium assays rely on reduction of a dye to a coloured formazan, in cell work by metabolically active cells.
The test system of test [5] is Hepatitis B virus. Briefly: Inhibition of HBsAg release against HBV in HepG2 2.2.15 cell line at 0.4 umol/mL. The format is functional. Also noted: scale not given: the % may be the effect or the level left.
In test [6] the test system is Hepatitis B virus. Briefly: Inhibition of HBeAg release against HBV in HepG2 2.2.15 cell line at 0.1 umol/mL. Format: functional. Also noted: scale not given: the % may be the effect or the level left.
Test [7] concerns Hepatitis B virus. The test can be described thus: Inhibition of HBsAg release against HBV in HepG2 2.2.15 cell line at 0.1 umol/mL. Format: functional. Further details: scale not given: the % may be the effect or the level left.
Test [8] relates to HepG2. The test can be described thus: Cytotoxicity against HepG2 2.2.15 cell line at 0.4 umol/mL by MTT assay. Format: functional, Homo sapiens.
In test [9] the test system is Hepatitis B virus. The test can be described thus: Inhibition of HBsAg release against HBV in HepG2 2.2.15 cell line at 0.8 umol/mL. Format: functional. Also noted: scale not given: the % may be the effect or the level left.
Test [10] deals with Hepatitis B virus. The test can be described thus: Inhibition of HBeAg release against HBV in HepG2 2.2.15 cell line at 0.8 umol/mL. Format: functional. Also noted: scale not given: the % may be the effect or the level left.
The test system of test [11] is HepG2. The test can be described thus: Cytotoxicity against HepG2 2.2.15 cell line at 1.6 umol/mL by MTT assay. The format is functional, cell-based. The conditions noted are these: Homo sapiens.

On to `O=c1cccc2n1C[C@H]1C[C@H]2CN2CCCC[C@H]12`, for which the Activity in the test on Hepatitis B virus [1] turned out to be 0%; with Hepatitis B virus [2] it was 19.8%; in the test with Hepatitis B virus [3] it was 0%; with Hepatitis B virus [5] it was 33.1%. Also, the result in the test with HepG2 [4] was Active.

`O=C1CCC[C@@H]2[C@H]3CCCN4CCC[C@@H](CN12)[C@H]34`: the Activity in the test on Hepatitis B virus [6] is recorded as 9.6%; in the test on Hepatitis B virus [1], 10.8%; in the test on Hepatitis B virus [2] it was 27.7%; in the test on Hepatitis B virus [7] it was 25.1%; with HepG2 [8], “>=25%”.

With `O=C1C=CC[C@@H]2[C@H]3CCCN4CCC[C@H](CN12)[C@@H]34`, the Activity in the test on Hepatitis B virus [9] is 79.3%; in the test with Hepatitis B virus [6], 0%; in the test with Hepatitis B virus [1], 6.8%; with Hepatitis B virus [2], 63.4%; in the test on Hepatitis B virus [10] it was 27.6%; in the test on Hepatitis B virus [3] it was 22.4%. Further, the Activity in the test with Hepatitis B virus [7] amounted to 17.9%; with Hepatitis B virus [5], 78.2%. Besides, the result with HepG2 [11] was Active.

As for `O=C1CCC[C@@H]2[C@H]3CCCN4CCC[C@@H](CN12)[C@@H]34` [MATRINE], the Activity in the test on Hepatitis B virus [6] is on record as 0%; in the test with Hepatitis B virus [1] it was 2.7%; with Hepatitis B virus [2] it was 30.9%; in the test with Hepatitis B virus [7], 8.9%; in the test with HepG2 [8], “>=25%”.

On to `O=C1C=C[C@H](O)[C@@H]2[C@H]3CCCN4CCC[C@@H](CN12)[C@@H]34`, for which the Activity in the test on Hepatitis B virus [6] is listed as 0%; in the test on Hepatitis B virus [1] it was 4.6%; in the test on Hepatitis B virus [2], 40.8%; with Hepatitis B virus [7] it was 28%; in the test with HepG2 [8] it was “>=25%”.

For `O=C1C=CC[C@@H]2[C@H]3C[C@H](O)CN4CCC[C@@H](CN12)[C@@H]34`, the Activity in the test on Hepatitis B virus [6] is recorded as 0%; with Hepatitis B virus [1] it was 5.7%; in the test with Hepatitis B virus [2], 24.5%; in the test with Hepatitis B virus [7] it was 0%; with HepG2 [8] it was “>=25%”.

For `O=C1C=CC[C@@H]2[C@H]3CCCN4CCC[C@@H](CN12)[C@@H]34` [SOPHOCARPINE], the Activity in the test with Hepatitis B virus [6] was 31.4%; in the test with Hepatitis B virus [1] it was 34.6%; in the test on Hepatitis B virus [2], 57.2%; with Hepatitis B virus [7] it was 21.6%; in the test on HepG2 [8], “>=25%”.

For `O=C1CCC[C@@H]2[C@H]3C[C@H](O)CN4CCC[C@@H](CN12)[C@@H]34`, the Activity is 13.3% in the test on Hepatitis B virus [6]; 19.5% in the test with Hepatitis B virus [1]; 31.6% in the test on Hepatitis B virus [2]; 18.1% with Hepatitis B virus [7]; “>=25%” in the test with HepG2 [8].

`O=C1C=CC[C@@H]2[C@H]3CCC[N+]4([O-])CCC[C@@H](CN12)[C@@H]34` (some centres undefined) [OXYSOPHOCARPINE]: the Activity is listed as 22.4% in the test with Hepatitis B virus [6]; 24.6% with Hepatitis B virus [1]; 48.3% in the test on Hepatitis B virus [2]; 39.9% with Hepatitis B virus [7]; “>=25%” in the test on HepG2 [8].

As for `O=C1CC=C[C@@H]2[C@H]3CCCN4CCC[C@@H](CN12)[C@@H]34`, the Activity with Hepatitis B virus [6] is reported as 22.6%; in the test on Hepatitis B virus [1] it was 25.4%; in the test with Hepatitis B virus [2], 52.6%; in the test on Hepatitis B virus [7] it was 25.1%; in the test on HepG2 [8] it was “>=25%”.

Regarding `O=C1CCC[C@@H]2[C@H]3CCC[N+]4([O-])CCC[C@@H](CN12)[C@@H]34` (some centres undefined) [OXYMATRINE], the Activity was 15.8% with Hepatitis B virus [6]; 17.1% in the test with Hepatitis B virus [1]; 39.7% in the test on Hepatitis B virus [2]; 35.3% with Hepatitis B virus [7]; “>=25%” in the test on HepG2 [8].
